Assay results taken from patent EP0728012B1, “NOVEL GnRH ANALOGUES WITH ANTITUMOUR EFFECTS AND PHARMACEUTICAL COMPOSITIONS THEREOF” (Lovas, Sandor, priority 1994, dated 1996).

Assays:
[1] = system: MDA-MB-231 xenograft; experiment: In vivo antitumour effect on MDA-MB-231 xenograft in immunosuppressed mice; design: species or system CBA/Ca mice; conditions: week 7; daily s.c.; 1 x 100 µg series
How it was run: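 Female CBA-Ca mice thymectomized, whole-body 60Co-irradiated a week later, given 3 to 5 x 10^5 myelocytes within 24 h, then implanted s.c. with MDA-MB-231 cells or tumour pieces. Treatment began in week 4 or 5 post-implant at 140-150 mm^3 or 0.165-0.194 cm^3; 7 animals per group, controls daily s.c. saline.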

[2] = system: MXT mouse mammary tumour; experiment: In vivo antitumour effect on mice bearing MXT mouse mammary tumour; design: species or system CBA/Ca mice
[3] = system: cytosolic progesterone receptor (cPgR); conditions: animals bearing MCF-7 xenografts
[4] = system: MCF-7 xenograft; experiment: In vivo antitumour effect on MCF-7 xenograft in immunosuppressed mice; design: species or system CBA/Ca mice; conditions: for Tumour volume as control (%): conjugates 1 x 50 µg; for Inhibition % (tumour growth): daily s.c.
Description: The immunosuppression of mice was carried out by using the method of Steel et al. [Br. J. Cancer, 37, 224-230 (1978)]. Immunosuppression and xeno-transplantation
CBA-Ca female mice of about 6 weeks old were thymectomized and then, after one week, they were irradiated with 60Co (whole body irradiation; the lethal dose is 9.5 Gray). Within 24 hours 3 to 5 x 10^5 myelocytes were injected into the animals. Beneath the skin of the immunosuppressed mice 2 x 10^7 tumour cells or, in the case of later passages, […] were implanted. […] The treatment with steroid hormone was stopped by at least one week before beginning the investigation.
In the case of MCF-7 tumours (xenografts) the examinations were carried out with passages being in the phase of the 37th and 38th, respectively, transplantations.
In the case of mice bearing MCF-7 xenograft, the treatment was begun in the 4th week following xeno-transplantation.
Recent investigations have begun on 28 animals bearing MCF-7 xenograft and on 28 animals bearing MDA-MB-231 xenograft. On animals bearing MCF-7 tumour the treatment was commenced in the 5th week following xeno-transplantation; the tumour volume was 205 to 225 mm^3. On animals bearing MDA-MB-231 tumour, the treatment was started in the 4th week after xeno-transplantation with a tumour volume of 140 to 150 mm^3. […] The control groups were daily treated with physiological saline s.c. (Each treated group consisting of 7 animals).

[5] = system: MDA-MB-231 human mammary carcinoma cell line; experiment: Inhibition of colony formation (dose-survival relation, Example 18); format: cell-based
[6] = system: Ishikawa human endometrium carcinoma cell line; experiment: as above; format: cell-based
[7] = system: MCF-7 human mammary carcinoma cell line; experiment: as above; format: cell-based; conditions: treated once
[8] = system: PC3 human prostate carcinoma cell line; experiment: as above; format: cell-based
[9] = MXT mouse mammary tumour, Treatment weeks: 13, 1x75 µg daily s.c.
[10] = MXT mouse mammary tumour, Treatment weeks: 20, 1x75 µg daily s.c.
[11] = after 6 week treatment, xenograft not given

## Ac-D-Trp^1,3,D-Cpa^2,{Lys(n-poly-(N-vinylpyrrolidone-co-maleic acid)-Gly-Phe-Leu-Gly]}^6,D-Ala^10-GnRH [P-GFLG-1544]
[1]
  Tumour volume as control (%): 59%
[2]; [9]
  Inhibition %: 61%
  Tumour volume as control (%): 39%
[2]; [10]
  Inhibition %: 49%
  Tumour volume as control (%): 51%
[2]; day 9, 75 µg/day/animal s.c.
  Tumour volume (cm^3): 0.38 cm^3
  Tumour volume as control (%): 55%
[2]; day 11, 75 µg/day/animal s.c.
  Tumour volume (cm^3): 0.74 cm^3
  Tumour volume as control (%): 41%
[2]; day 13, 75 µg/day/animal s.c.
  Tumour volume (cm^3): 1.26 cm^3
  Tumour volume as control (%): 39%
[2]; day 17, 75 µg/day/animal s.c.
  Tumour volume (cm^3): 2.43 cm^3
  Tumour volume as control (%): 46%
[2]; day 18, 75 µg/day/animal s.c.
  Tumour volume (cm^3): 3.91 cm^3
  Tumour volume as control (%): 52%
[2]; day 20, 75 µg/day/animal s.c.
  Tumour volume (cm^3): 4.74 cm^3
  Tumour volume as control (%): 51%
[2]; day 24, 75 µg/day/animal s.c.
  Tumour volume (cm^3): 7.34 cm^3
  Tumour volume as control (%): 58%
[2]; day 26, 75 µg/day/animal s.c.
  Tumour volume (cm^3): 9.03 cm^3
  Tumour volume as control (%): 65%
[3]
  decrease of the uterus cPgR level: 54%
[4]; MCF-7 xenograft, first study, conjugates 150 µg in every 3rd day, P-GFLG-OH daily s.c.
  rate of tumour growth: not influenced
[4]; MCF-7 xenograft, first study, end of 4th week, MI-1892 2 x 25 µg daily, conjugates 50 µg daily once
  decrease in the tumour volume in comparison to controls: 30%
[4]; MCF-7 xenograft, 4th week of treatment
  tumour volume: 1.806 cm^3
[4]; MCF-7 xenograft, 6th week
  tumour-free animals: a tumour-free animal was found
[4]; MCF-7 xenograft, treatment week 2
  Tumour volume as control (%): 70%
[4]; MCF-7 xenograft, treatment week 2, listed as 6. P-GFLG-1544
  Inhibition % (tumour growth): 30%
[4]; MCF-7 xenograft, treatment week 4
  Inhibition % (tumour growth): 49%
[4]; MCF-7 xenograft, treatment week 6, MI-1892 2 x 25 µg
  Tumour volume as control (%): 51%
[4]; MCF-7 xenograft, treatment week 6, listed as 6. P-GFLG-1544
  Inhibition % (tumour growth): 49%
[4]; [11]
  Volume (cm^3) of tumours: 3.502 ± 0.321 cm^3
  Weight (g) of tumours: 4.8 ± 0.8 g
[5]; 10 µM
  % Inhibition of colony formation: 80%
[5]; 50 µM
  % Inhibition of colony formation: 100%
[6]; 50 µM
  % Inhibition of colony formation: 100%
[6]; 30 to 50 µM
  inhibition of colony formation: 100%
[7]; 10 µM (active substance)
  % Inhibition of colony formation: 85%
[7]; 50 µM (active substance)
  % Inhibition of colony formation: 100%
[8]; 10 µM
  % Inhibition of colony formation: 100%
[8]; 50 µM
  % Inhibition of colony formation: 100%
[8]; 30 to 50 µM
  inhibition of colony formation: 100%
